Assay results as given in patent US20220120753A1, “METHOD FOR DETERMINING PROGNOSIS OF CANCER” (The University of Tokyo, priority 2018, published 2022).
Peptide text beside a SMILES is read from it. * marks the point of attachment. Cbz = O=C(OCc1ccccc1)*

T1: KDM4B (UniProt O94953 1-1096)
T1 construct: Endogenous KDM4B in MCF-7 nuclear extract or cell lysate; also called histone lysine demethylase KDM4B
T1 sequence (looked up): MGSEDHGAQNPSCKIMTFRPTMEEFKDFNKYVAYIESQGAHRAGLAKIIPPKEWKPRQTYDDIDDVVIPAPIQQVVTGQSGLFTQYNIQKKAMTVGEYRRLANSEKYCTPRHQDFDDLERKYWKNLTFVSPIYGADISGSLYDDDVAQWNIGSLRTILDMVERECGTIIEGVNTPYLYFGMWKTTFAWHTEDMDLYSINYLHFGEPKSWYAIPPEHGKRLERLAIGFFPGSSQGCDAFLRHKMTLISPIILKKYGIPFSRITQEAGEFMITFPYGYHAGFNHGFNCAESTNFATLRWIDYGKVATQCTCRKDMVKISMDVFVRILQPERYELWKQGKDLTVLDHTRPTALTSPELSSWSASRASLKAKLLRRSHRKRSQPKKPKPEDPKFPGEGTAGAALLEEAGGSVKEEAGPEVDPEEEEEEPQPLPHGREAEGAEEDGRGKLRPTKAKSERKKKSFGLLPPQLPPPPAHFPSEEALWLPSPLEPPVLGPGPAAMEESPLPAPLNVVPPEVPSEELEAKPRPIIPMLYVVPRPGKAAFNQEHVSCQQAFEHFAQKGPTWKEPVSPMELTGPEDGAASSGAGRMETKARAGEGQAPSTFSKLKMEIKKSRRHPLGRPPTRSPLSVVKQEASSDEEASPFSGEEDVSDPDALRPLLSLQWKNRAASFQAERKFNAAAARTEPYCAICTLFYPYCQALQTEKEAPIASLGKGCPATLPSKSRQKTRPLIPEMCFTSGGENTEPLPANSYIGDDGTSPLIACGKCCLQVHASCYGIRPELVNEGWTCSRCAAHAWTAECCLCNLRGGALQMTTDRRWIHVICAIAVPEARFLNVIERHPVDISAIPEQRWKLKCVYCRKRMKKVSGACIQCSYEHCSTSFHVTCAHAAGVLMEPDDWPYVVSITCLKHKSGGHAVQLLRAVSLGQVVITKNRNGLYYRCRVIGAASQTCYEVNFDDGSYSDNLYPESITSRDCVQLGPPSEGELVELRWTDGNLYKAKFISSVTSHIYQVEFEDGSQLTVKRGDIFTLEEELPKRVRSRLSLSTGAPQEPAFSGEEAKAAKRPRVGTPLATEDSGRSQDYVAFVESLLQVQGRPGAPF

B1: wild-type FLAG-Fbxo22 (Wt) (other)
chain: MEPVGCCGECRGSSVDPRSTFVLSNLAEVVERVLTFLPAKALLRVACVCRLWRECVRRVLRTHRSVTWISAGLAEAGHLEGHCLVRVVAEELENVRILPHTVLYMADSETFISLEECRGHKRARKRTSMETALALEKLFPKQCQVLGIVTPGIVVTPMGSGSNRPQEIEIGESGFALLFPQIEGIKIQPFHFIKDPKNLTLERHQLTEVGLLDNPELRVVLVFGYNCCKVGASNYLQQVVSTFSDMNIILAGGQVDNLSSLTSEKNPLDIDASGVVGLSFSGHRIQSATVLLNEDVSDEKTAEAAMQRLKAANIPEHNTIGFMFACVGRGFQYYRAKGNVEADAFRKFFPSVPLFGFFGNGEIGCDRIVTGNFILRKCNEVKDDDLFHSYTTIMALIHLGSSK
notes: Dox-induced expression in MCF-7 cells; The tag is placed first by the order in the name; not shown: FLAG tag
B2: Estrogen receptor α (ERα) (receptor, UniProt P03372 1-595, looked up)
chain: MTMTLHTKASGMALLHQIQGNELEPLNRPQLKIPLERPLGEVYLDSSKPAVYNYPEGAAYEFNAAAAANAQVYGQTGLPYGPGSEAAAFGSNGLGGFPPLNSVSPSPLMLLHPPPQLSPFLQPHGQQVPYYLENEPSGYTVREAGPPAFYRPNSDNRRQGGRERLASTNDKGSMAMESAKETRYCAVCNDYASGYHYGVWSCEGCKAFFKRSIQGHNDYMCPATNQCTIDKNRRKSCQACRLRKCYEVGMMKGGIRKDRRGGRMLKHKRQRDDGEGRGEVGSAGDMRAANLWPSPLMIKRSKKNSLALSLTADQMVSALLDAEPPILYSEYDPTRPFSEASMMGLLTNLADRELVHMINWAKRVPGFVDLTLHDQVHLLECAWLEILMIGLVWRSMEHPGKLLFAPNLLLDRNQGKCVEGMVEIFDMLLATSSRFRMMNLQGEEFVCLKSIILLNSGVYTFLSSTLKSLEEKDHIHRVLDKITDTLIHLMAKAGLTLQQQHQRLAQLLLILSHIRHMSNKGMEHLYSMKCKNVVPLYDLLLEMLDAHRLHAPTSRGGASVEETDQSHLATAGSTSSHSLQKYYITGEAEGFPATV
notes: Endogenous ERα in MCF-7 nuclear extract or cell lysate; also called ERalpha

Columns and labels:
[1] = test system: ERα-dependent transcription; assay: qPCR of ERα target gene transcripts (EBAG9, GREB1) in MCF-7 cells; format: cell-based, human; conditions: for effect of removing Fbxo22 on the antagonistic activity: MCF-7 expressing Dox-induced shRNAs, E2 6 h then drug 12 h
Protocol: (§1) Using total RNA derived from individual cells recovered over time, qPCR was carried out. […] Using total RNA prepared from the treated cells, qPCR was carried out. […] Using the nucleus extract, immunoprecipitation and immunoblotting were carried out.
Using total RNA prepared from the cells over time, qPCR was carried out.
(§2) Total RNA was prepared from the cells treated with various drugs, and qPCR was carried out.
The cells were washed with PBS three times, and were then cultured in phenol red-non-added DMEM (supplemented with 5% charcoal-stripped FBS) for 72 hours.
Quantitative RT-PCR was carried out according to the method described in Johmura et al., Molecular Cell 55: 73-84, 2014. Total RNA was extracted using ISOGEN II (Wako), and using this as a template, cDNA was synthesized using SuperScript II cDNA synthesis kit (Invitrogen). PCR amplification was carried out in a 96-well optical reaction plate, using Power SYBR Green PCR Master Mix (Applied Biosystems). The relative expression ratio of individual genes was normalized with respect to the expression level of GAPDH.

[2] = test system: ERα complex with KDM4B and SRC-3
Protocol: as §1
The obtained cells were immunostained with anti-FLAG antibodies. Representative images are shown.
as §2
Immunoprecipitation and immunoblotting were carried out according to the method described in Johmura et al., Molecular Cell 55: 73-84, 2014. The cells were dissolved in a TBSN buffer (20 mM Tris-Cl (pH 8.0), 150 mM NaCl, 0.5% NP-40, 5 mM EGTA, 1.5 mM EDTA, and 0.5 mM Na3VO4). The obtained cell lysate was centrifuged at 4° C. at 15,000×g for 20 minutes, and was then used in immunoprecipitation using an antibody.
Regarding immunoprecipitation of ERα and KDM4B, a nuclear extract was prepared according to the method described in Hirokawa et al., Cancer Res. 74: 3880-3889, 2014. Cell pellets were suspended in buffer A (10 mM Hepes-KOH pH 7.9, 10 mM KCl, 1.5 mM MgCl2, 0.5 mM DTT, 0.5 mM PMSF, and protease inhibitor cocktail (Nakalai Tesque)) having five times the volume of the cell pellets, and the suspension was then incubated on ice for 5 minutes. Thereafter, the cells were centrifuged at 4° C. at 500×g for 5 minutes, and the obtained cell pellets were then suspended in buffer A having two times the volume of the cell pellets for homogenization. The homogenized cell suspension was centrifuged at 4° C. at 4,000×g for 5 minutes, and a cell nucleus was recovered in a precipitate. To the recovered nucleus, an equal amount of buffer B (20 mM Hepes-KOH pH 7.9, 600 mM KCl, 1.5 mM MgCl2, 0.2 mM EDTA, 25% glycerol, 0.5 mM DTT, 0.5 mM PMSF, and protease inhibitor cocktail) was added and suspended, and the obtained mixture was then blended at 4° C. for 30 minutes, using a rotator. The nuclear extract was centrifuged at 4° C. at 16,000×g for 15 minutes, and was then recovered in a supernatant. The nuclear extract was dialyzed against buffer C (20 mM Hepes-KOH pH 7.9, 100 mM KCl, 0.2 mM EDTA, 20% glycerol, 0.5 mM DTT, and 0.5 mM PMSF). After completion of the dialysis, the nuclear extract was centrifuged at 4° C. at 16,000×g for 30 minutes, and the remaining precipitate was then eliminated.
A protein (20 to 50 μg) was separated from the total cell lysate by SDS-PAGE, and was then transferred into a PVDF membrane (Millipore), which was then used in immunoblotting using various types of antibodies.

[3] = test system: ERα; assay: ChIP-Seq analysis of ERα binding in MCF-7 cells; format: cell-based, human; conditions: 2 hours, E2 line = E2 (10 nM), 4-OHT line = E2+4-OHT
From the text: Thereafter, DNA was extracted using a DNA purification column.

[4] = target: T1, KDM4B; assay: co-IP and immunoblot, E2-depleted MCF-7 cells with MG132 and 0.1, 1 or 10 nM E2 (FIG. 3I)
[5] = target: B2; assay: anti-FLAG co-IP and immunoblot, MCF-7 cells expressing FLAG-Fbxo22 Wt or domain-deficient mutants (FIG. 3G)
[6] = target: T1, KDM4B; assay: co-IP (IP: ER) and immunoblot, MCF-7 nuclear extract after E2 (FIG. 2B)
[7] = target: T2, N-CoR repressor (UniProt O75376 1-2440, limits assumed); assay: co-IP and immunoblot, control MCF-7 nuclear extract after E2 then 4-OHT (FIG. 5B)
T2 construct: Endogenous corepressor in MCF-7 nuclear extract
T2 sequence (O75376 whole entry): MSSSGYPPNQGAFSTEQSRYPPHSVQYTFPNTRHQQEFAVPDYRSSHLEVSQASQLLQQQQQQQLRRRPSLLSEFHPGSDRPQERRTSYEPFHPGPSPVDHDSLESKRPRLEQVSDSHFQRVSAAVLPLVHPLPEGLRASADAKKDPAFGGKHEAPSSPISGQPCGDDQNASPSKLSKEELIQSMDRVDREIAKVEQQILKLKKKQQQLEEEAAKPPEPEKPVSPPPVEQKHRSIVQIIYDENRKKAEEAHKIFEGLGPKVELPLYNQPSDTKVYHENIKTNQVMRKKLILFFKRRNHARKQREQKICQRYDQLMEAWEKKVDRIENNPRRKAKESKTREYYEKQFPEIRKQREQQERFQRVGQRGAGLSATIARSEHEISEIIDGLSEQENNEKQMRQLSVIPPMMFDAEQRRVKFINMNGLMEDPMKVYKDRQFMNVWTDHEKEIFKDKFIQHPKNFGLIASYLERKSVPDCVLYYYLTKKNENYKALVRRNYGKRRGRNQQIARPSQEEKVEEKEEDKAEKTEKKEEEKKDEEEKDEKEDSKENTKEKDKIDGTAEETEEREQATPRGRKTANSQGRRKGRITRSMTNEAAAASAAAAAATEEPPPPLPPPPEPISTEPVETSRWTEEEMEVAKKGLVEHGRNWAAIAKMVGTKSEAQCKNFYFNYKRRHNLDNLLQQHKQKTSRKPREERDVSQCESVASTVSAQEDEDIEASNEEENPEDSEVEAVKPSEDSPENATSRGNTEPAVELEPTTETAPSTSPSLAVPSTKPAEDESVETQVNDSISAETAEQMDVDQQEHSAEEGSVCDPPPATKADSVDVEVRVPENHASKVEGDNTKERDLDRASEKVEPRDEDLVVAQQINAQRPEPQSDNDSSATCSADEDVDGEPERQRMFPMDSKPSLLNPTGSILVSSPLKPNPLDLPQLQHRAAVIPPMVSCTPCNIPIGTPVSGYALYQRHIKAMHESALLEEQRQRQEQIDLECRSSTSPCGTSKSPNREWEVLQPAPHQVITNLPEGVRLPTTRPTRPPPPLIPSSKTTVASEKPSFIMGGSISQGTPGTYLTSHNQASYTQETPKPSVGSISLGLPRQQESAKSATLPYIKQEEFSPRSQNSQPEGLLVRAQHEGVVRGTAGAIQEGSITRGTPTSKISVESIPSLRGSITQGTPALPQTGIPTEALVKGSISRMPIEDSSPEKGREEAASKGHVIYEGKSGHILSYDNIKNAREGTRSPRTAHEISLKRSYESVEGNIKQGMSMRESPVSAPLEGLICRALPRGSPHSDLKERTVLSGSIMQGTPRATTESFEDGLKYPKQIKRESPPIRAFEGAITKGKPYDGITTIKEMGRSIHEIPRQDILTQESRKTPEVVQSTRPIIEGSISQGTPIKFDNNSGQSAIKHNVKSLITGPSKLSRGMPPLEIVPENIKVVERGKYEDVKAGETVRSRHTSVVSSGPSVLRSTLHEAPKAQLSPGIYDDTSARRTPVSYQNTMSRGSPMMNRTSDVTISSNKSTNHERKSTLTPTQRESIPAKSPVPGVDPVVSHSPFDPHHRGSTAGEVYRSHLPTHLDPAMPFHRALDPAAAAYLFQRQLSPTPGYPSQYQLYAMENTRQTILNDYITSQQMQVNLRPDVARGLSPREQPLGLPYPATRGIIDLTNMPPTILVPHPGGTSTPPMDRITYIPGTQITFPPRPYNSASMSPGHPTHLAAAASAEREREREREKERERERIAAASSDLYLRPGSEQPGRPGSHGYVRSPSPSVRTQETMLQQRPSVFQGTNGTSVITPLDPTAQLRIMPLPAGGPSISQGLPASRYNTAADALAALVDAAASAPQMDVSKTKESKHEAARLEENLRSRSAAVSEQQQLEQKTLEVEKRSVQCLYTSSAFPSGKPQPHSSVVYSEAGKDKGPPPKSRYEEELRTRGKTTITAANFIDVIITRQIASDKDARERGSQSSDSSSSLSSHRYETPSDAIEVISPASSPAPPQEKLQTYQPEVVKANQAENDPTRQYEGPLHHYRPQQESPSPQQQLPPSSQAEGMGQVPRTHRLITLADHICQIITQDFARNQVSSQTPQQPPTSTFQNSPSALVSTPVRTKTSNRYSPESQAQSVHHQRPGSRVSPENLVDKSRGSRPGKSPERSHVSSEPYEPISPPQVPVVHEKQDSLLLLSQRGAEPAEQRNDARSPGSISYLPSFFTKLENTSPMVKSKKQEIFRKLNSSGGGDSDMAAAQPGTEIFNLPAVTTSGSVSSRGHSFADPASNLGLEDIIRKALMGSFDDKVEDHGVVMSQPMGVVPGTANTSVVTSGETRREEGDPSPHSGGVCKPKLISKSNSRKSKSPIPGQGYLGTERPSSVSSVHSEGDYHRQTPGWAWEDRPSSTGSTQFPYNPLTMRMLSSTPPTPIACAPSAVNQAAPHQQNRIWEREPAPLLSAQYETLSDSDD

Molecule: CN(C)CCOc1ccc(/C(=C(/CCCl)c2ccccc2)c2ccccc2)cc1 [Toremifene]
effect of removing Fbxo22 on the antagonistic activity [1]: effects similar to those on 4-OHT

Molecule: C[C@]12CC[C@@H]3c4ccc(O)cc4C[C@@H](CCCCCCCCC[S+]([O-])CCCC(F)(F)C(F)(F)F)[C@H]3[C@@H]1CC[C@@H]2O (stereo partly shown) [Fulvestrant]
effect of removing Fbxo22 on the antagonistic activity [1]: no effects
need of Fbxo22 for the dynamics of cofactors in treated cells ([2]; MCF-7, E2 plus drug): not necessary

Molecule: C[C@]12CC[C@@H]3c4ccc(O)cc4CC[C@H]3[C@@H]1CC[C@@H]2O [E2, Estradiol]
ERα accumulation peaks detected ([3]; Fbxo22-depleted MCF-7 cells): 23,213
ERα accumulation peaks detected ([3]; wild-type/control MCF-7 cells): 1,264

Molecule: CC(C)C[C@@H](C=O)NC(=O)[C@H](CC(C)C)NC(=O)[C@H](CC(C)C)NC(=O)OCc1ccccc1 [MG132] (Cbz-Leu-Leu-Leu-aldehyde)
E2-induced transcriptional activity of EBAG9 and GREB1 after removal of E2 ([1]; MCF-7, E2 removed from medium, proteasome inhibitor added): recovered
transcript levels of EBAG9 and GREB1 after treatment with 4-OHT ([1]; MCF-7, E2 then 4-OHT, in the presence of MG132 (10 μg/ml) compared with absence): maintained at high levels
dynamics of cofactors (complex dissociation, N-CoR binding) after 4-OHT ([2]; MCF-7, E2+4-OHT+MG132): suppressed
dissociation of KDM4B and SRC-3 from ERα by elimination of E2 ([2]; MCF-7, E2 depletion plus proteasome inhibitor): suppressed

Molecule: B1
binding result [4]: binds
binding result [5]: binds

Molecule: B2
binding result [6]: binds
binding result [7]: binds
